In patent publication US10919911B2, “Tricyclic ASK1 inhibitors” (Terns, Inc., priority 2018, dated 2021) one finds IC50 data, which are given here for eleven molecules.

The target of the assay is ASK1 kinase (Homo sapiens (Human), UniProt Q99683). In words: RBC Kinase Assay (33P-ATP radiometric, myelin basic protein substrate). The class given is biochemical. Particulars: 20 ng ASK1 kinase, MBP substrate, 120 min at room temperature, 1% DMSO. The protocol:
Example B1. RBC Kinase Assay Protocol
Base Reaction buffer: 20 mM Hepes (pH 7.5), 10 mM MgCl2, 1 mM EGTA, 0.02% Brij35, 0.02 mg/ml BSA, 0.1 mM Na3VO4, 2 mM DTT, and 1% DMSO were used for the assay.
Myelin base protein (MPB) was prepared in freshly prepared Base Reaction Buffer. 20 ng of ASK1 kinase was delivered into the substrate solution and gently mixed. Compounds in DMSO were delivered into the kinase reaction mixture (final DMSO concentration 1%). Commercially available 33P-ATP was delivered into the reaction mixture to initiate the reaction. The kinase reaction was incubated for 120 min. at room temperature. Reactions were spotted onto P81 ion exchange paper (Whatman #3698-915). Filters were washed extensively in 0.75% Phosphoric acid. Radioactivity on filters was read, and IC50 values were determined.

ASK1 kinase, sequence (Q99683 whole entry): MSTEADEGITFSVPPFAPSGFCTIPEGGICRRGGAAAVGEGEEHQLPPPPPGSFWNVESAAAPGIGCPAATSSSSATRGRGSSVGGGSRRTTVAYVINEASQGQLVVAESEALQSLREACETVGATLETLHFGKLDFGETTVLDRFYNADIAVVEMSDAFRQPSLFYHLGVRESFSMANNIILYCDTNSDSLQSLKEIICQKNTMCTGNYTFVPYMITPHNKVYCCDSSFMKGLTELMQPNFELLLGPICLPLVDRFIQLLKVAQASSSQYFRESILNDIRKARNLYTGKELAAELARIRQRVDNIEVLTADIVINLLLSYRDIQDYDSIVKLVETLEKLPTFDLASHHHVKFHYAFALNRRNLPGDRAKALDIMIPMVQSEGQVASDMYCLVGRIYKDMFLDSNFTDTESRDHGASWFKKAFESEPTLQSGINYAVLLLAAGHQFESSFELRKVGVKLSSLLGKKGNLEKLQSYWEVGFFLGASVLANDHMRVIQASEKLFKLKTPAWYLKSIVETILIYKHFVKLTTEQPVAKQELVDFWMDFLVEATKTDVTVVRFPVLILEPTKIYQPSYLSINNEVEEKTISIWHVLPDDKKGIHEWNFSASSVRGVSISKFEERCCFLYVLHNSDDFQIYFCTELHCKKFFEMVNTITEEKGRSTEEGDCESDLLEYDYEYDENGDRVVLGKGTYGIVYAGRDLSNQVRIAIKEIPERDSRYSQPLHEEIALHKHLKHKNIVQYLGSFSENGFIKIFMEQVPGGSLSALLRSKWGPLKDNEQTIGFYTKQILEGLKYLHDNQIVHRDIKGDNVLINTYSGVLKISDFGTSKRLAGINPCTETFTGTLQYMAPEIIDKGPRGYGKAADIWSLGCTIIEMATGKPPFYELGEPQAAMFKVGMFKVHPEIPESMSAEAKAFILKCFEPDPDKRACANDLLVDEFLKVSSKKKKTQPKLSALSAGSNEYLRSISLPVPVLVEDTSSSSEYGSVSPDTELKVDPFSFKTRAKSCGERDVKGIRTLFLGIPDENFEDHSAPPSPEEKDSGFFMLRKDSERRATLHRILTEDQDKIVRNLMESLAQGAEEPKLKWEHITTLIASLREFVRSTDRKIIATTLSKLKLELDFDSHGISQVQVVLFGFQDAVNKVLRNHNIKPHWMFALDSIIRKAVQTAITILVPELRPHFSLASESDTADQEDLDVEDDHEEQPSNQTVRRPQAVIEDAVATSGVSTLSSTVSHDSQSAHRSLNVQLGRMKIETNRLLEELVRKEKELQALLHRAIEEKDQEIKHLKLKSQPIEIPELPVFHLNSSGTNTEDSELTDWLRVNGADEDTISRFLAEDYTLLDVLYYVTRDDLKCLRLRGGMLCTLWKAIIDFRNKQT

For `Cc1cc(F)c(C(=O)Nc2cccc3c2OC[C@@H](C)n2cnnc2-3)cc1-n1cnc(C2CC2)c1` [Example 1, (R)-5-(4-cyclopropyl-1H-imidazol-1-yl)-2-fluoro-4-methyl-N-(5-methyl-5,6-dihydrobenzo[f][1,2,4]triazolo[4,3-d][1,4]oxazepin-8-yl)benzamide], the IC50 – broadly, the concentration at which inhibition is half-maximal – amounted to 5.8 nM.

In turn, `Cc1cc(F)c(C(=O)Nc2cccc3c2OC[C@H](C)n2cnnc2-3)cc1-n1cnc(C2CC2)c1` [Example 2, (S)-5-(4-cyclopropyl-1H-imidazol-1-yl)-2-fluoro-4-methyl-N-(5-methyl-5,6-dihydrobenzo[f][1,2,4]triazolo[4,3-d][1,4]oxazepin-8-yl)benzamide] had an IC50 of 9.1 nM. Regarding `Cc1cc(F)c(C(=O)Nc2cccc3c2OC[C@H](C)n2nnnc2-3)cc1-n1cnc(C2CC2)c1` [Example 3, (S)-5-(4-cyclopropyl-1H-imidazol-1-yl)-2-fluoro-4-methyl-N-(5-methyl-5,6-dihydrobenzo[f]tetrazolo[1,5-d][1,4]oxazepin-8-yl)benzamide], the IC50 amounted to 5.7 nM. On to `C[C@@H]1COc2c(NC(=O)c3cc(-n4cnc(C5CC5)c4)ccn3)cccc2-c2nnnn21` [Example 4, (R)-4-(4-cyclopropyl-1H-imidazol-1-yl)-N-(5-methyl-5,6-dihydrobenzo[f]tetrazolo[1,5-d][1,4]oxazepin-8-yl)picolinamide], for which the IC50 turned out to be 5.7 nM. The same measure for `Cc1cc(F)c(C(=O)Nc2cccc3c2OC[C@@H](C)n2nnnc2-3)cc1-n1cnc(C2CC2)c1` [Example 5, (R)-5-(4-cyclopropyl-1H-imidazol-1-yl)-2-fluoro-4-methyl-N-(5-methyl-5,6-dihydrobenzo[f]tetrazolo[1,5-d][1,4]oxazepin-8-yl)benzamide]: 5.8 nM; for `C[C@H]1COc2c(NC(=O)c3cc(-n4cnc(C5CC5)c4)ccn3)cccc2-c2nnnn21` [Example 6, (S)-4-(4-cyclopropyl-1H-imidazol-1-yl)-N-(5-methyl-5,6-dihydrobenzo[f]tetrazolo[1,5-d][1,4]oxazepin-8-yl)picolinamide]: 7.7 nM. `Cc1cc(F)c(C(=O)Nc2cccc3c2OCCn2cnnc2-3)cc1-n1cnc(C2CC2)c1` [Example 7, 5-(4-cyclopropyl-1H-imidazol-1-yl)-N-(5,6-dihydrobenzo[f][1,2,4]triazolo[4,3-d][1,4]oxazepin-8-yl)-2-fluoro-4-methylbenzamide] gave a concentration for half-maximal inhibition (IC50) of 8.5 nM. For `Cc1cc(F)c(C(=O)Nc2cccc3c2OC[C@@H](C2CC2)n2cnnc2-3)cc1-n1cnc(C2CC2)c1` [Example 8, (R)-5-(4-cyclopropyl-1H-imidazol-1-yl)-N-(5-cyclopropyl-5,6-dihydrobenzo[f][1,2,4]triazolo[4,3-d][1,4]oxazepin-8-yl)-2-fluoro-4-methylbenzamide] the value was 11.7 nM.

For `Cc1cc(F)c(C(=O)Nc2cccc3c2OCC(C)(C)n2cnnc2-3)cc1-n1cnc(C2CC2)c1` [Example 9, 5-(4-cyclopropyl-1H-imidazol-1-yl)-N-(5,5-dimethyl-5,6-dihydrobenzo[f][1,2,4]triazolo[4,3-d][1,4]oxazepin-8-yl)-2-fluoro-4-methylbenzamide], the IC50 was determined as 5.6 nM. On to `Cc1cc(F)c(C(=O)Nc2cccc3c2OCC2(CC2)n2cnnc2-3)cc1-n1cnc(C2CC2)c1` [Example 10, 5-(4-cyclopropyl-1H-imidazol-1-yl)-2-fluoro-4-methyl-N-(6H-spiro[benzo[f][1,2,4]triazolo[4,3-d][1,4]oxazepine-5,1′-cyclopropan]-8-yl)benzamide], for which half-maximal inhibition (IC50) was put at 0.5 nM.

With `C[C@@H]1COc2c(NC(=O)c3cc(-n4cnc(C5CC5)c4)ccn3)cccc2-c2nncn21` [Example 11, (R)-4-(4-cyclopropyl-1H-imidazol-1-yl)-N-(5-methyl-5,6-dihydrobenzo[f][1,2,4]triazolo[4,3-d][1,4]oxazepin-8-yl)picolinamide], the IC50 came out at 5.4 nM.
